The source of these data is patent US9694016B2 (Novartis AG, priority 2013, dated 2017).

Sequence of b-Raf (V600E) (P15056 whole entry V600E): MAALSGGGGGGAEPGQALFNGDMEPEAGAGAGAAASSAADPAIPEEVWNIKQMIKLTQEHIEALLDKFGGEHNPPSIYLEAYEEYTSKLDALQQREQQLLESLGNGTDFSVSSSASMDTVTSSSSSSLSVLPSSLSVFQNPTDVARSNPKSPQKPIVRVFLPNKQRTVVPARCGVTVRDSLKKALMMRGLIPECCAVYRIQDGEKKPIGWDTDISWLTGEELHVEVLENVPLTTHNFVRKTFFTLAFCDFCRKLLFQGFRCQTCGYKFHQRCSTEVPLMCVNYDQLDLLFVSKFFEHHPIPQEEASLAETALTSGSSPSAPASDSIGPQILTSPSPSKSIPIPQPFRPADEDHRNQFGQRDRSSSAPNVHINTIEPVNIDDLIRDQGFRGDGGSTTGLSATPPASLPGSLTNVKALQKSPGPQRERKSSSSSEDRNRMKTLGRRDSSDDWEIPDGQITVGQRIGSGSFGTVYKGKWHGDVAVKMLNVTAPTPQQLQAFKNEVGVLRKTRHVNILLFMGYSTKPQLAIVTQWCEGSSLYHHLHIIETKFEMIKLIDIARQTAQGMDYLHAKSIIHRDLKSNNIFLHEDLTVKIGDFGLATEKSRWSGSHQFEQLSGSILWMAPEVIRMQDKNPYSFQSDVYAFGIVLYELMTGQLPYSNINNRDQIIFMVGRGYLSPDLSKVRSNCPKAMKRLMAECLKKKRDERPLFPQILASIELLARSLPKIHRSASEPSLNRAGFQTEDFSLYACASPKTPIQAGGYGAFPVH

The first experiment has as its target b-Raf (V600E) (Homo sapiens (Human), UniProt P15056, V600E). The conditions noted are these: read-out: b-Raf IC-50.
As for `Cc1ccc(NC(=O)c2cc(CN(C)C)cc(C(F)(F)F)c2)cc1-c1cc(N2CCOCC2)c(=O)n(C)c1` [Example 173, 3-((dimethylamino)methyl)-N-(4-methyl-3-(1-methyl-5-morpholino-6-oxo-1,6-dihydropyridin-3-yl)phenyl)-5-(trifluoromethyl)benzamide], the IC50 is 9.2 nM.

Still in this experiment, the particulars now being: read-out: b-Raf IC-50; AlphaScreen, 60 min pre-incubation, 3 hours reaction.
Consider `Cc1ccc(NC(=O)c2cccc(C(F)(F)F)c2)cc1-c1nc(N2CCOCC2)c2c(cnn2C)n1` [Example 837, N-(4-methyl-3-(1-methyl-7-morpholino-1H-pyrazolo[4,3-d]pyrimidin-5-yl)phenyl)-3-(trifluoromethyl)benzamide], for which the IC50 is 0.2 nM.
For the compound `Cc1ncc(NC(=O)c2cnnc(C(F)(F)F)c2)cc1-c1cc(N2CCOCC2)n2nccc2n1` [Example 801, N-(6-methyl-5-(7-morpholinopyrazolo[1,5-a]pyrimidin-5-yl)pyridin-3-yl)-6-(trifluoromethyl)pyridazine-4-carboxamide], the IC50 turned out to be 3 nM.
In the case of `Cc1ncc(NC(=O)c2ccnc(C(C)(C)F)c2)cc1-c1cncc(N2CCOCC2)n1` [Example 534, 2-(2-fluoropropan-2-yl)-N-(6-methyl-5-(6-morpholinopyrazin-2-yl)pyridin-3-yl)isonicotinamide], the IC50 amounted to 6 nM.
Regarding `Cc1ccc(NC(=O)c2ccnc(C(C)(C)C#N)c2)cc1-c1cc(N2CCOCC2)c2nccn2n1` [Example 844, 2-(2-cyanopropan-2-yl)-N-(4-methyl-3-(8-morpholinoimidazo[1,2-b]pyridazin-6-yl)phenyl)isonicotinamide], the IC50 amounted to 1.7 nM.
`Cc1ccc(NC(=O)c2ccnc(C(C)C)c2)cc1-c1cc(N2CCOCC2)nc(N(C)C)n1` [Example 757, N-(3-(2-(dimethylamino)-6-morpholinopyrimidin-4-yl)-4-methylphenyl)-2-isopropylisonicotinamide]: the IC50 was determined as 1.4 nM.
Still for that read-out and setting: to `COc1nnc(-c2cc(NC(=O)c3cnnc(C(C)(C)C#N)c3)ccc2C)cc1N1CCOCC1` [Example 557, 6-(2-cyanopropan-2-yl)-N-(3-(6-methoxy-5-morpholinopyridazin-3-yl)-4-methylphenyl)pyridazine-4-carboxamide] belongs 5.4 nM; to `Cc1ccc(NC(=O)c2ccnc(C(C)(C)O)c2)cc1-c1cc(N2CCOCC2)c2nccn2n1` [Example 841, 2-(2-hydroxypropan-2-yl)-N-(4-methyl-3-(8 morpholinoimidazo[1,2-b]pyridazin-6-yl)phenyl)isonicotinamide], 1.7 nM; to `Cc1ccc(NC(=O)c2ccnc(S(C)(=O)=O)c2)cc1-c1cc(N2CCOCC2)nc(N(C)C)n1` [Example 759, N-(3-(2-(dimethylamino)-6-morpholinopyrimidin-4-yl)-4-methylphenyl)-2-(methylsulfonyl)isonicotinamide], 11.5 nM.
The same measure, in the same setting: to `Cc1ccc(NC(=O)c2ccnc(C(C)(C)F)c2)cc1-c1cc(N2CCOCC2)c(OC(C)C)nn1` [Example 595, 2-(2-fluoropropan-2-yl)-N-(3-(6-isopropoxy-5-morpholinopyridazin-3-yl)-4-methylphenyl)isonicotinamide] belongs 0.6 nM; to `Cc1ccc(NC(=O)c2cccc(-c3nnco3)c2)cc1-c1cc(N2CCOCC2)c(=O)n(C)n1` [Example 639, N-(4-methyl-3-(1-methyl-5-morpholino-6-oxo-1,6-dihydropyridazin-3-yl)phenyl)-3-(1,3,4-oxadiazol-2-yl)benzamide], 7.3 nM.

The experiment is the same for the next values; noted with them: read-out: b-Raf IC-50; AlphaScreen, 60 min pre-incubation, reaction 3 hours at room temperature.
As for `Cc1ncc(NC(=O)c2ccnc(C3CC3)c2)cc1-c1cc(NCCO)nc(N2CCOCC2)c1` [Example 1057, 2-cyclopropyl-N-(2′-((2-hydroxyethyl)amino)-2-methyl-6′-morpholino-[3,4′-bipyridin]-5-yl)isonicotinamide], the IC50 worked out at 4.12 nM.
With `O=C(Nc1c[nH]c(=O)c(-c2ccnc(N3CCOCC3)c2)c1)c1cccc(C(F)F)c1` [Example 1174, 3-(difluoromethyl)-N-(2′-morpholino-2-oxo-1,2-dihydro-[3,4′-bipyridin]-5-yl)benzamide], the IC50 turned out to be 25000 nM.
Same read-out and setting: with `Cc1ccc(NC(=O)c2cc(C(C)(C)C#N)ccn2)cc1-c1cc(N2CCOCC2)c(=O)n(C)c1` [Example 903, 4-(2-cyanopropan-2-yl)-N-(4-methyl-3-(1-methyl-5-morpholino-6-oxo-1,6-dihydropyridin-3-yl)phenyl)picolinamide] the figure was 3.64 nM; with `Cc1ccc(NC(=O)c2ccnc(C(C)(C)F)c2)cc1-c1cc(C2COCCO2)nc(N2CCOCC2)c1` (centres unmarked) [Example 1144, N-(3-(2-(1,4-dioxan-2-yl)-6-morpholinopyridin-4-yl)-4-methylphenyl)-2-(2-fluoropropan-2-yl)isonicotinamide], 1.56 nM.
With `Cc1ccc(NC(=O)c2ccnc(C(C)(C)O)c2)cc1-c1cc(NCCO)nc(N2CCOCC2)c1F` [Example 1010, N-(3-(3-fluoro-6-((2-hydroxyethyl)amino)-2-morpholinopyridin-4-yl)-4-methylphenyl)-2-(2-hydroxypropan-2-yl)isonicotinamide], the IC50 was 28.9 nM.
For `Cc1ncc(NC(=O)c2cccc(C(F)(F)F)c2)cc1-c1nc2c(c(N3CCOCC3)n1)CS(=O)(=O)C2` [Example 886, N-(6-methyl-5-(4-morpholino-6,6-dioxido-5,7-dihydrothieno[3,4-d]pyrimidin-2-yl)pyridin-3-yl)-3-(trifluoromethyl)benzamide], the IC50 was 7.6 nM.
Consider `Cc1ccc(NC(=O)c2ccnc(C(C)(C)C#N)c2)cc1-c1cn2ccnc2c(N2CCOCC2)n1` [Example 860, 2-(2-cyanopropan-2-yl)-N-(4-methyl-3-(8-morpholinoimidazo[1,2-a]pyrazin-6-yl)phenyl)isonicotinamide], for which the IC50 amounted to 11.6 nM.
Take `CCOc1ccc(-c2cc(NC(=O)c3ccnc(C(C)(F)F)c3)cnc2C)nc1N1CCOCC1` [Example 1028, 2-(1,1-difluoroethyl)-N-(5-ethoxy-2′-methyl-6-morpholino-[2,3′-bipyridin]-5′-yl)isonicotinamide]: the IC50 was 4.11 nM.
Regarding `Cc1ccc(NC(=O)c2cnnc(C3CC3)c2)cc1-c1cc(N2CCOCC2)nc(N2CC(C)(O)C2)c1` [Example 1076, 6-cyclopropyl-N-(3-(2-(3-hydroxy-3-methylazetidin-1-yl)-6-morpholinopyridin-4-yl)-4-methylphenyl)pyridazine-4-carboxamide], the IC50 is 2.31 nM.
`CCOc1ncc(-c2cc(NC(=O)c3cccc(S(C)(=N)=O)c3)ccc2C)cc1N1CCOCC1` (centres unmarked) [Example 975, N-(3-(6-ethoxy-5-morpholinopyridin-3-yl)-4-methylphenyl)-3-(S-methylsulfonimidoyl)benzamide]: the IC50 was 1.81 nM.

Still in this experiment, the particulars now being: read-out: b-Raf IC-50; Table 2; AlphaScreen, 3 hours reaction.
Regarding `Cn1cc(-c2cc(NC(=O)c3cccc(C(F)F)c3)ccc2F)cc(N2CCOCC2)c1=O` [Example 417, 3-(difluoromethyl)-N-(4-fluoro-3-(1-methyl-5-morpholino-6-oxo-1,6-dihydropyridin-3-yl)phenyl)benzamide], the IC50 came out at 3.1 nM.
Take `Cc1ccc(NC(=O)c2ccnc(C(C)(C)C#N)c2)cc1-c1cc(N2CCOCC2)c(=O)n(CC2(C)COC2)c1` [Example 338, 2-(2-cyanopropan-2-yl)-N-(4-methyl-3-(1-((3-methyloxetan-3-yl)methyl)-5-morpholino-6-oxo-1,6-dihydropyridin-3-yl)phenyl)isonicotinamide]: the IC50 was 9000 nM.
`Cc1cc(C(=O)Nc2cnc(C)c(-c3cc(N4CCOCC4)c(=O)n(C)c3)c2)n(C)n1` [Example 376, N-(1′,2-dimethyl-5′-morpholino-6′-oxo-1′,6′-dihydro-[3,3′-bipyridin]-5-yl)-1,3-dimethyl-1H-pyrazole-5-carboxamide]: the IC50 is 2800 nM.
For `Cc1ccc(NC(=O)c2cccc(OC(F)(F)F)c2)cc1-c1cc(N2CCOCC2)c(=O)n(C)c1` [Example 340, N-(4-methyl-3-(1-methyl-5-morpholino-6-oxo-1,6-dihydropyridin-3-yl)phenyl)-3-(trifluoromethoxy)benzamide], the IC50 came to 36.4 nM.
In the case of `Cc1cc(C(=O)Nc2ccc(C)c(-c3cc(N4CCOCC4)c(=O)n(C)c3)c2)n(C)n1` [Example 381, 1,3-dimethyl-N-(4-methyl-3-(1-methyl-5-morpholino-6-oxo-1,6-dihydropyridin-3-yl)phenyl)-1H-pyrazole-5-carboxamide], the IC50 was determined as 100 nM.
Same read-out and setting: to `CCc1cc(C(=O)Nc2ccc(C)c(-c3cc(N4CCOCC4)c(=O)n(C)c3)c2)ccn1` [Example 353, 2-ethyl-N-(4-methyl-3-(1-methyl-5-morpholino-6-oxo-1,6-dihydropyridin-3-yl)phenyl)isonicotinamide] belongs 1.2 nM; to `CCOc1ncc(-c2cc(NC(=O)c3cccc(-c4nnco4)c3)ccc2C)cc1N1CCOCC1` [Example 230, N-(3-(6-ethoxy-5-morpholinopyridin-3-yl)-4-methylphenyl)-3-(1,3,4-oxadiazol-2-yl)benzamide], 1.4 nM; to `Cc1ncc(NC(=O)c2cccc(C3(C#N)CC3)c2Cl)cc1-c1cc(N2CCOCC2)c(=O)n(C)c1` [Example 403, 2-chloro-3-(1-cyanocyclopropyl)-N-(1′,2-dimethyl-5′-morpholino-6′-oxo-1′,6′-dihydro-[3,3′-bipyridin]-5-yl)benzamide], 62 nM.
For `CCOc1cc(C(=O)Nc2cnc(C)c(-c3cc(N4CCOCC4)c(=O)n(C)c3)c2)ccc1F` [Example 395, N-(1′,2-dimethyl-5′-morpholino-6′-oxo-1′,6′-dihydro-[3,3′-bipyridin]-5-yl)-3-ethoxy-4-fluorobenzamide], the IC50 was 9.8 nM.
Take `Cc1ccc(C(=O)Nc2cccc(C(F)(F)F)c2)cc1-c1cc(N2CCS(=O)(=O)CC2)nc(N2CCOCC2)n1` [Example 7, 3-(6-(1,1-dioxidothiomorpholino)-2-morpholinopyrimidin-4-yl)-4-methyl-N-(3-(trifluoromethyl)phenyl)benzamide]: the IC50 is 2.5 nM.
Regarding `Cc1ncc(NC(=O)c2cnnc(C(F)(F)F)c2)cc1-c1cnc(N(C)C)c(N2CCOCC2)c1` [Example 270, N-(6′-(dimethylamino)-2-methyl-5′-morpholino-[3,3′-bipyridin]-5-yl)-6-(trifluoromethyl)pyridazine-4-carboxamide], the IC50 was 0.5 nM.
